# Test results: article PMC11439058, “Exploiting the bile acid binding protein as transporter of a Cholic Acid/Mirin bioconjugate for potential applications in liver cancer therapy” (Scientific Reports, 2024)
# Values joined by “and” are separate entries in the source; they are usually repeats but may differ in a detail not shown here. Equal entries are not always repeated. Where two headings read alike, the source gives them in different places.
# How the values were obtained:
# [1] = Extraction recovery from denatured microsomes (matrix effect); conditions: human, Recovery (% Rec, Time 0'), denatured human liver microsomes
# Description: Therefore, matrix effects were investigated by preparing fresh time-zero solutions made of denatured microsomes, solvent mix and tested compounds. To have a better correlation with the time-zero of the metabolic stability experiments, final volumes and concentrations used were not modified.
# Extraction Recovery % (% Rec) of CA-M11 and Mirin in human liver microsomes. Data are reported as the mean ± standard deviation (SD) of n=3 experiments run in triplicates.
# [2] = PAMPA assay; type: in vitro ADME; conditions: 4 h, rt
# Description: PAMPA assay. The DMSO stock solution of each compound was diluted 1:1 v/v with phosphate buffer (PBS 10 mM, pH 7.4) to obtain donor solutions. Each well of the filter plate was covered with a 1% w/v L-α-phosphatidylcholine solution (PC) in dodecane used to mimic the phospholipidic bilayer and then added with the donor. In the acceptor plate, a mixture solution of DMSO/PBS 1:1 v/v was placed, and the sandwich was incubated at rt for 4 h under gentle shaking. At the end time point, samples were taken from both the upper and the lower plates and analyzed using the UV/LC-MS method described above. Apparent permeability (Papp cm/s x 10^−6) and membrane retention (MR %) was calculated as previously reported.
# [3] = HepG2 cytotoxicity, Neutral Red Uptake; type: cell-based, Human; conditions: human
# Description: (§1) Cell cultures and cytotoxicity assay. To evaluate the in vitro cytotoxicity of the test samples, the direct contact tests, proposed by ISO […], Biological evaluation of medical devices – Part 5: Tests for cytotoxicity: in vitro methods were used[71]. This test is suitable for sample with various shapes, sizes, or physical status (i.e. liquid or solid).
# (§2) Evaluation of HepG2 viability. Cells were maintained in DMEM at 37 °C in a humidified atmosphere containing 5% CO2. The culture medium was supplemented with 10% fetal calf serum (FCS), 1% L-glutamine-penicillin-streptomycin solution, and 1% MEM Non-Essential Amino Acid Solution. Once at confluence, cells were washed with PBS 0.1 M, taken up with trypsin-EDTA solution and then centrifuged at 1000 rpm for 5 min. The pellet was re-suspended in medium solution (dilution 1:15).
# (§3) The stock solutions of Mirin, Doxorubicin, and CA-M11 were prepared in DMSO. The following concentrations of Mirin and CA-M11 were tested: 5; 10; 20; 30; 40; 50; 60; 70; 80; 90 and 100 µM. […] Then, the experiments were repeated adding to Doxorubicin concentrations ranging from 0.3 to 6.0 µM, respectively, Mirin 5 µM, and CA-M11 5 µM. […] Each experiment was repeated 3 times, and all samples were set up in six replicates. A complete medium was used as negative control. […] At the end of the incubation, the routine culture medium was removed from each well, and cells were carefully rinsed with 1 mL of pre-warmed D-PBS. Multiwells were then gently blotted with paper towels. […] The cells were checked during the NR incubation for NR crystal formation. After incubation, the NR Medium was removed, cells were carefully rinsed with 1 mL of pre-warmed D-PBS. Then, the PBS was decanted and blotted from the wells and exactly 1 mL of NR Desorb solution was added to each sample. […] During this step the samples were covered in order to protect them from light. After 5 min from the plate shaker removal the absorbance was read at 540 nm by a UV/visible spectrophotometer (UV5, Mettler Toledo).
# [4] = tested on: HepG2 cells; test: HepG2 cytotoxicity, Neutral Red Uptake; type: cell-based, Human
# Description: as §1, §2, §3
# [5] = in vitro
# Description: (§4) Plasma Stability and stability in the cellular medium. A DMSO stock solution of tested compounds was incubated in the presence of human plasma ([…]) and HEPES buffer (25 mM, 140 mM NaCl, pH 7.4) or DMEM 10% FBS, (1% PS, and 1% Glu) at 37 °C under shaking. At selected time points (0, 0.083, 0.25, 0.5, 1, 2, 8, 24 h), samples were treated with cold ACN to stop reactions through protein denaturation, and centrifuged at 5000 rpm for 10 min. The supernatant was analyzed by UV/LC-MS to monitor the amount of unmodified compound. Data were calculated with Excel and plotted using GraphPad Prism 8.0 (GraphPad Software Inc., San Diego, CA, USA). The half-life value (t1/2) was calculated with the following formula: [drawing 2]
# [6] = tested on: Salmonella typhimurium strain TA100; test: Mutagenicity assay: Ames test, TA100; conditions: for concentration from which a mutagenic effect is shown: Salmonella typhimurium, 90 min
# Description: (§5) Mutagenicity assay: Ames test. The TA100 and TA98 strains of Salmonella Typhimurium were utilized for mutagenicity assay. Approximately 107 bacteria were exposed to 6 concentrations of each test compound, as well as a positive and a negative control, for 90 min in a medium containing sufficient histidine to support approximately two cell divisions. After 90 min, the exposure cultures were diluted in pH indicator medium lacking histidine, and aliquoted into 48 wells of a 384-well plate. Within two days, cells which had undergone the reversion to His grew into colonies. Metabolism by the bacterial colonies reduced the pH of the medium, changing the color of that well. This color change can be detected visually or by a microplate reader. The number of wells containing revertant colonies were counted for each dose and compared to a zero-dose control. Each dose was tested in six replicates. The following concentrations of Mirin and CA-M11 were tested: 5; 10; 30; 50; 80 and 100 µM. The concentration values tested of Doxorubicin were: 0.3; 1.2; 1.8; 3.0; 6.0 and 30 µM. The experiments were then repeated adding to Doxorubicin concentrations ranging from 0.3 to 30 µM, respectively, Mirin 5 µM and CA-M11 5 µM.
# [7] = tested on: Salmonella typhimurium strain TA98; test: Mutagenicity assay: Ames test, TA98; conditions: for concentration from which a mutagenic effect is shown: Salmonella typhimurium, 90 min
# Description: as §5
# [8] = in vitro; remark: listed apart in the source
# Description: as §4
# [9] = Microsomal (metabolic) stability; type: in vitro ADME; conditions: human liver microsomes
# Description: Microsomal stability. In the presence of phosphate buffer (PBS 10 mM, pH 7.4), human liver microsomes (HLM) (0.2 mg mL^−1), and a NADPH solution in MgCl2 48 mM, each DMSO compound solution was incubated at 37 °C for 1 h under shaking. Then, the metabolizing reactions were stopped by adding cold acetonitrile (ACN). After centrifuging and drying the reaction mixes under N2 flow, the quantitative analyses were performed using the UV/LC-MS method previously described. The percentages of the metabolized and unmetabolized compounds were calculated as previously described[73],[74].
compound,measurement,setting,value
"C[C@H](CCC(=O)Oc1ccc(/C=C2\SC(=N)NC2=O)cc1)[C@H]1CCC2C3C(C[C@H](O)[C@@]21C)[C@@]1(C)CC[C@@H](O)CC1C[C@H]3O (stereo partly drawn) [CA-M11, (4R)-4-((Z)-(2-Imino-4-oxothiazolidin-5-ylidene)methyl)phenyl 4-((3R,7R,10 S,12 S,13R,17R)-3,7,12-trihydroxy-10,13-dimethylhexadecahydro-1 H-cyclopenta[a]phenanthren-17-yl)pentanoate]",recovery at 0 min,[1],< 70%
same,Membrane retention MR (%),[2],2.26 ± 0.64%
same,IC50 at 24 h,[3],40 µM
same,cytotoxic effect on HepG2 cells at 5 µM,[4],does not exert a significant cytotoxic effect
same,increase of cell death in combination with Doxorubicin,"[4]; 5 µM compound + Doxorubicin 2.4 µM, HepG2, 24 h",roughly 40%
same,Plasma stability (% ± SD),"[5]; human, 0 h, pH 7.4",72.79 ± 2.57%
same,Plasma stability (% ± SD),"[5]; human, 0.083 h, pH 7.4",74.01 ± 0.65%
same,Plasma stability (% ± SD),"[5]; human, 0.25 h, pH 7.4",72.29 ± 3.22%
same,Plasma stability (% ± SD),"[5]; human, 0.5 h, pH 7.4",75.47 ± 0.04%
same,compound hydrolyzed by plasmatic esterases,"[5]; human, pH 7.4",Approximately 30%
same,half-life,"[5]; human, plasma, pH 7.4, t 1/2 (half-life) in plasma",~18 h
same,concentration from which a mutagenic effect is shown,[6],≥ 10 µM
same,concentration from which a mutagenic effect is shown,[7],≥ 10 µM
same,DMEM cell culture medium stability (% ± SD),[8]; 0 h,93.96 ± 5.76%
same,DMEM cell culture medium stability (% ± SD),[8]; 0.083 h,91.94 ± 0.85%
same,DMEM cell culture medium stability (% ± SD),[8]; 0.25 h,94.24 ± 0.37%
same,DMEM cell culture medium stability (% ± SD),[8]; 0.5 h,94.77 ± 0.60%
same,DMEM cell culture medium stability (% ± SD),[8]; 1 h,92.08 ± 2.15%
same,DMEM cell culture medium stability (% ± SD),[8]; 2 h,82.83 ± 3.38%
same,half-life,[8]; buffer,21.7 h
COc1cccc2c1C(=O)c1c(O)c3c(c(O)c1C2=O)C[C@@](O)(C(=O)CO)C[C@@H]3O[C@H]1C[C@H](N)[C@H](O)[C@H](C)O1 [Doxorubicin],"viability at 24 h, 0.3 µM","[3]; HepG2 cells, Doxorubicin 0.3 µM, 24 h, read-out: Percentage of viable HepG2 cells",84.7%
same,"viability at 24 h, 0.6 µM","[3]; HepG2 cells, Doxorubicin 0.6 µM, 24 h, read-out: Percentage of viable HepG2 cells",73.4%
same,"viability at 24 h, 1.2 µM","[3]; HepG2 cells, Doxorubicin 1.2 µM, 24 h, read-out: Percentage of viable HepG2 cells",65%
same,"viability at 24 h, 1.8 µM","[3]; HepG2 cells, Doxorubicin 1.8 µM, 24 h, read-out: Percentage of viable HepG2 cells",49.9%
same,"viability at 24 h, 2.4 µM","[3]; HepG2 cells, Doxorubicin 2.4 µM, 24 h, read-out: Percentage of viable HepG2 cells",38.4%
same,"viability at 24 h, 3 µM","[3]; HepG2 cells, Doxorubicin 3.0 µM, 24 h, read-out: Percentage of viable HepG2 cells",28.3%
same,"viability at 24 h, 6 µM","[3]; HepG2 cells, Doxorubicin 6.0 µM, 24 h, read-out: Percentage of viable HepG2 cells",18.9%
same,"viability at 24 h, 12 µM","[3]; HepG2 cells, Doxorubicin 12.0 µM, 24 h, read-out: Percentage of viable HepG2 cells",5.8%
same,IC50 at 24 h,"[3]; HepG2 cells, HepG2, 24 h, Neutral Red Uptake, read-out: IC50 (cytotoxic effect)",1.8 µM
same,concentration from which a mutagenic effect is shown,[6],≥ 10 µM
same,concentration from which a mutagenic effect is shown,[7],≥ 10 µM
"[H]/N=C1/NC(=O)C(=Cc2ccc(O)cc2)S1 [Mirin, (Z)-5-(4-Hydroxybenzylidene)-2-iminothiazolidin-4-one]",recovery at 0 min,[1],92.3 ± 1.92%
same,Membrane retention MR (%),[2],1.16 ± 0.90%
same,IC50 at 24 h,"[3]; HepG2, 24 h, Neutral Red Uptake, read-out: IC50 (cytotoxic effect)",50 µM
same,Plasma stability (% ± SD),"[5]; human plasma, time 0 h",89.10 ± 1.03%
same,Plasma stability (% ± SD),"[5]; human plasma, time 0.083 h",90.80 ± 0.13%
same,Plasma stability (% ± SD),"[5]; human plasma, time 0.25 h",92.18 ± 1.34%
same,Plasma stability (% ± SD),"[5]; human plasma, time 0.5 h",88.72 ± 3.98%
same,Plasma stability (% ± SD),"[5]; human plasma, time 1 h",89.70 ± 2.23%
same,Plasma stability (% ± SD),"[5]; human plasma, time 2 h",84.51 ± 2.93%
same,Plasma stability (% ± SD),"[5]; human plasma, time 8 h",83.07 ± 2.40%
same,Plasma stability (% ± SD),"[5]; human plasma, time 24 h",77.94% and 77.94 ± 2.30%
same,percentage of unmodified compound in plasma,"[5]; human plasma, up to 8 h of incubation",≥ 80%
same,Metabolic stability (%),[9]; time 0 min,92.32 ± 1.93%
same,Metabolic stability (%),[9]; time 60 min,90.65 ± 0.83%
same,effect on Doxorubicin mutagenicity,"[6]; 5 µM compound + Doxorubicin 0.3 to 30 µM, TA100",not able to affect Doxorubicin mutagenicity
same,effect on Doxorubicin mutagenicity,"[7]; 5 µM compound + Doxorubicin 0.3 to 30 µM, TA98",not able to affect Doxorubicin mutagenicity
same,half-life,[8],> 100 h
same,stability percentage in DMEM cell culture medium,"[8]; DMEM 10% FBS, all time points up to 24 h",above 90%
same,DMEM cell culture medium stability (% ± SD),"[8]; DMEM 10% FBS, time 0 h",104.19 ± 1.20%
same,DMEM cell culture medium stability (% ± SD),"[8]; DMEM 10% FBS, time 0.083 h",106.18 ± 0.16%
same,DMEM cell culture medium stability (% ± SD),"[8]; DMEM 10% FBS, time 0.25 h",107.78 ± 1.57%
same,DMEM cell culture medium stability (% ± SD),"[8]; DMEM 10% FBS, time 0.5 h",103.73 ± 2.61%
same,DMEM cell culture medium stability (% ± SD),"[8]; DMEM 10% FBS, time 1 h",104.88 ± 6.37%
same,DMEM cell culture medium stability (% ± SD),"[8]; DMEM 10% FBS, time 2 h",98.81 ± 3.43%
same,DMEM cell culture medium stability (% ± SD),"[8]; DMEM 10% FBS, time 8 h",97.14 ± 2.81%
same,DMEM cell culture medium stability (% ± SD),"[8]; DMEM 10% FBS, time 24 h",91.14 ± 2.70%
same,half-life,[8]; buffer,114 h
